Here are results for five compounds from patent US20170217976A1, “6-(AMINO ACID)-MORPHINAN DERIVATIVES IN COMBINATION WITH PERMEATION […] FOR USE AS AN ORALLY, […], TRA[…] NASALLY AD[…]” (C[…], priority 2014, published 2017).

The structures appear in SMILES notation. Read-outs that look alike come from different tables or passages of the source.

Series [1] deals with T1, human MOR (Homo sapiens, UniProt P35372).
T1 construct: expressed in transfected cells; host or cells: CHO cells
Kind of series: biochemical. Format: biochemical. As for the experimental part: A number of compounds were evaluated for agonist potency and efficacy at the MOR using the [^35S]GTPγS functional assay in CHO cells expressing human MOR receptors.

The target in series [2] is T2, MOR (Rattus norvegicus, UniProt P33535).
T2 construct: from tissue
Kind of series: Opioid receptor binding, MOR, rat brain membranes.

In series [3] the target is T3, DOR (Rattus norvegicus, UniProt P33533).
T3 construct: from tissue
Kind of series: Opioid receptor binding, DOR, rat brain membranes.

Series [4] deals with mouse vas deferens preparation. Kind of series: Mouse vas deferens bioassay. The following applies: for IC50: read-out: IC50, agonist potency in mouse vas deferens. As for the experimental part:
The mouse vas deferens bioassay was performed as described in: M. Spetea et al., Eur. J. Pharmacol. 2004, 483, 301-308

The target of series [5] is T4, KOR (Cavia porcellus, UniProt P41144).
T4 construct: from tissue
Kind of series: Opioid receptor binding, KOR, guinea pig brain membranes. The following applies: Binding Ki (nM) KOR, in vitro binding assay, guinea pig brain membranes.

The subject of series [6] is rats. Kind of series: Tail-flick test in rats after oral administration. Format: in vivo, rat. The following applies: for ED50: Rattus norvegicus, po. As for the experimental part:
The rat tail-flick test was performed as described in: S. Furst et. al. J. Pharmacol. Exp. Ther. 2005, 312, 609-618

Series [7] can be described thus: Permeation study through rat small intestine in Ussing type diffusion chambers. The class given is in vitro ADME. The following applies: apical to basolateral, pH 7.5, no permeation enhancer, three hours incubation.
Experimental: Ussing type diffusion chambers with a surface area of 0.64 cm^2 were utilized. Rat small intestine was excised immediately after sacrificing the animal and mounted in the chamber. The donor and acceptor compartments of the chamber were filled with 1.0 ml of the freshly prepared incubation medium containing either 40 mM HEPES buffer (HEPES=2-(4-(2-hydroxyethyl)-1-piperazinyl)-ethane sulfonic acid) adjusted to pH 7.5 or 6.5 or 50 mM sodium acetate buffer adjusted to pH 5.5. […] The samples were centrifuged at 7,200 g for 5 minutes and the supernatant was analyzed via HPLC. Cumulative corrections were performed for the previously removed samples to determine the total amount permeated.
A short description of series [8]: pH-metric determination of pKa, logP and logD in octanol/water (PCA200/Cheqsol). The class given is physicochemical. As for the experimental part: All titrations were performed in 0.15M KCl solution under argon gas. The pKa was determined by the shape of the titration curve and partition coefficients were determined by the shift in titration curve of pKa in the presence of octanol. The analysis of pH-metric data was performed by RefinementPro software (version 2.0, Sirius, Sussex, UK).

The conditions of series [9]: cited from earlier work.
For series [10] the following is noted: Riba P. et al. 2010, cited from earlier work.
The mark [11] stands for this setting: 0.5 h, read-out: ED50 (p.o., mg/kg) 30 min, 30 min.
The mark [12] stands for this setting: read-out: ED50 (p.o., mg/kg) 1 h, 1 h.
[13] abbreviates: read-out: ED50 (p.o., mg/kg) 2 h, 2 h.
The mark [14] stands for this setting: read-out: ED50 (p.o., mg/kg) 3 h, 3 h.

T3 sequence (P33533 whole entry): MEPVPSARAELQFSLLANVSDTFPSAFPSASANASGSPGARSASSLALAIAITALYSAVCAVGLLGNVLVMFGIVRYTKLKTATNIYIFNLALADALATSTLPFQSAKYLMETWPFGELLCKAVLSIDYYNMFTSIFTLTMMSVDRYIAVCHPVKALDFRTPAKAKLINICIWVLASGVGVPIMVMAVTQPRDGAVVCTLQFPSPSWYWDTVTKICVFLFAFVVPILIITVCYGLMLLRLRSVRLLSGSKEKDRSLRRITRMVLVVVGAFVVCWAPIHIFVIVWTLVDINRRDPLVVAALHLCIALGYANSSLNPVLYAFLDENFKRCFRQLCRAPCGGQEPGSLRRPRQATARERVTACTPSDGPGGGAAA
T1 sequence (P35372 whole entry): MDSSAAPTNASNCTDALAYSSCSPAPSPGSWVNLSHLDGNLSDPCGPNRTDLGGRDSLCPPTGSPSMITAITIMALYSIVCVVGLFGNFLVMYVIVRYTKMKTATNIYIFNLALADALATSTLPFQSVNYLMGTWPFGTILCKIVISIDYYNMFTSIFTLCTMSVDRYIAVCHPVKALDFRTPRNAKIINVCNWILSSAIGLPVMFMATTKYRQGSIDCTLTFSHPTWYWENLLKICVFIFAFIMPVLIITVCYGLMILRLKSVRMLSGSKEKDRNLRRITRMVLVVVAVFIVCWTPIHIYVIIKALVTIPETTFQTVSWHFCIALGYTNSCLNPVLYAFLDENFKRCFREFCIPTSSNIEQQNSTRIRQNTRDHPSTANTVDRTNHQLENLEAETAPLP
T2 sequence (P33535 whole entry): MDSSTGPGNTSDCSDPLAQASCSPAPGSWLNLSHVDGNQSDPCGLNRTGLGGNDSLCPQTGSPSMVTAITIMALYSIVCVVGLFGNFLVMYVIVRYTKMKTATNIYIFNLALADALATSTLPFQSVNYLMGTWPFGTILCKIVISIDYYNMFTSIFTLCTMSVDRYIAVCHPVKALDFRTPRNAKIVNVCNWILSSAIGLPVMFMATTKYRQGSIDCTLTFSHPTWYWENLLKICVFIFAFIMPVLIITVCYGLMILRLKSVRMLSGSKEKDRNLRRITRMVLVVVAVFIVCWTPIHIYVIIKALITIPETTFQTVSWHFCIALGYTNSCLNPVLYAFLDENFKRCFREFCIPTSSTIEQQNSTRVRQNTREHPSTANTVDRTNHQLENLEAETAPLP
T4 sequence (P41144 whole entry): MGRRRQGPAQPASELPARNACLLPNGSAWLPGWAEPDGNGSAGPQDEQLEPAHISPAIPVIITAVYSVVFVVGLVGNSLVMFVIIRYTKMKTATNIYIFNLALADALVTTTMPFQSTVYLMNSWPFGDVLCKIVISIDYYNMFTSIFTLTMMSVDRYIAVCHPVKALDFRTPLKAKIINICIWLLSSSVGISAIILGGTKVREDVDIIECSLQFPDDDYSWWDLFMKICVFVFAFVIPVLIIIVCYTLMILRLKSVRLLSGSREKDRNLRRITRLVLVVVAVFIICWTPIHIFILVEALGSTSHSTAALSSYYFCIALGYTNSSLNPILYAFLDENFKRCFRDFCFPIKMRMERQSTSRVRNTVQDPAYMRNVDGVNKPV

On to `CO[C@@]12CCC(=O)[C@@H]3Oc4c(O)ccc5c4[C@@]31CCN(C)[C@@H]2C5` [Compound 14-OMO, 14-O-methyloxymorphone, reference compound], for which the concentration giving a half-maximal response (EC50) in [1] (Table 1-4, human MOP expressed in CHO cells, read-out: [35S]GTPγS binding, MOR EC50) worked out at 1.17 nM. In series [1] (Table 1-4, measured against DAMGO), the “[35S]GTPγS binding, MOR % stim.” value is recorded as 127%. For the same compound, the inhibition constant Ki in [2] (Table 1-4, rat brain membranes, read-out: Binding Ki MOR) is 0.1 nM; in series [2] (in vitro binding assay, rat brain membranes, read-out: Binding Ki (nM) MOR), 0.1 nM; in [3] (Table 1-4, rat brain membranes, read-out: Binding Ki DOR) it was 4.8 nM; in series [3] (in vitro binding assay, rat brain membranes, read-out: Binding Ki (nM) DOR), 4.8 nM. In addition, in [4], the half-maximal inhibitory concentration (IC50) amounted to 7.76 nM.

Regarding `CCOC(=O)CN[C@@H]1CC[C@@]2(OC)[C@H]3Cc4ccc(O)c5c4[C@@]2(CCN3C)[C@H]1O5` [HS731-Et ester], the Ki in [2] (Binding Ki (nM) MOR, in vitro binding assay, rat brain membranes) turned out to be 0.74 nM; in series [3] (Binding Ki (nM) DOR, in vitro binding assay, rat brain membranes), 0.81 nM; in [5], 21.9 nM. The ED50 was greater than 2.5 mg/kg in [6] (setting [11]); 2.34 mg/kg in series [6] (setting [12]); 0.85 mg/kg in [6] (setting [13]); 0.71 mg/kg in series [6] (setting [14]); 0.82 mg/kg in series [6] (read-out: ED50 (p.o., mg/kg) 4 h, 4 h). Also, the “antinociceptive potency, fold higher than HS731 after 1 h” value in [6] (p.o., 1 h, relative to HS731) is on record as “ca. 2 fold”. The “antinociceptive potency, fold higher than HS731 after 2 h” value in series [6] (p.o., 2 h, relative to HS731) is given as “ca. 8 fold”. The “antinociceptive potency, fold higher than HS731 after 3 h” value in series [6] (p.o., 3 h, relative to HS731) is “ca. 9 fold”. In addition, the IC50 in series [4] (Mus musculus) stood at 23.8 nM. In addition, the “times less potent than HS731 in mouse vas deferens bioassay” value in series [4] (relative to HS731) is recorded as “about 3.5”.

As to `CCO.CO[C@@]12CC[C@@H](NCC(=O)O)[C@@H]3Oc4c(O)ccc5c4[C@@]31CCN(C)[C@@H]2C5.Cl.Cl.O` [HS731, 2-[(4,5α-EPOXY-3-HYDROXY-14β-METHOXY-17-METHYLMORPHINAN-6β-YL)AMINO]ACETIC ACID DIHYDROCHLORIDE HYDRATE ETHANOLATE], in series [1], the midpoint of the response, the EC50, lay at 3.88 nM. Moreover, the Emax in series [1] (read-out: [35S]GTPγS binding, MOR % stim.) is 107%. In series [7], the “permeation through rat intestinal mucosa” value worked out at 11%. In addition, the ED50 in series [6] (setting [11]) was determined as 21 mg/kg; in [6] (setting [12]) it was 5.52 mg/kg; in series [6] (setting [13]) it was 6.78 mg/kg; in series [6] (setting [14]), 6.33 mg/kg. Moreover, the half-inhibitory concentration (IC50) in series [4] (Mus musculus) was 7 nM. The pKa in series [8] ([…] KCl solution (aqueous titration), 25° C., 0.15M KCl) is 2.4. In [8] (octanol/water, 25° C.), this compound registered a logP of -0.78. Further, the logD in series [8] (octanol/water, pH 7.4, 25° C.) was -2.06.

Consider `C[C@H]1CN(C[C@H](Cc2ccccc2)C(=O)NCC(=O)O)CC[C@@]1(C)c1cccc(O)c1` [alvimopan], for which the oral bioavailability result in [9] is recorded as “approx. 6%”.

`CN1CC[C@]23c4c5ccc(O)c4O[C@H]2C(=O)CC[C@@]3(O)[C@H]1C5` [OMO, oxymorphone]: in series [10] (pH 7.4, published data), the “logD (pH = 7.4)” value is recorded as −0.32. Besides, in series [10] (published data), the log partition coefficient (logP) is 0.67 and the pKa is listed as 8.33.
